Reference: patent publication US20030211076A1, “Compositions and methods for treatment of proliferative disorders” (priority 2003, published 2003)

What was measured:
lysyl oxidase (LO) = target: T1, lysyl oxidase (LO) (Bos taurus, UniProt P33072); test: LO-dependent H2O2 release, horseradish peroxidase-coupled fluorescence assay (substrate potential for LO); assay type: biochemical; conditions: 55° C. and 37° C.
T1 construct: per mature LO molecule (32 kD); from tissue
T1 sequence (P33072 170-418): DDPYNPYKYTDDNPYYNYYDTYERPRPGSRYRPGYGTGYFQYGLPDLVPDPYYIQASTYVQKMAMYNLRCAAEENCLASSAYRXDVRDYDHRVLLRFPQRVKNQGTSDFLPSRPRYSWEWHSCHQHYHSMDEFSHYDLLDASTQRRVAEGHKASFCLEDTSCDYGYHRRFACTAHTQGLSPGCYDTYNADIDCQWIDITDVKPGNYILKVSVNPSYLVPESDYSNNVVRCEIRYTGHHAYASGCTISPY
Procedure: The oxidation of a primary amine substrate by LO yields stoichiometric amounts of the corresponding aldehyde, hydrogen peroxide and ammonia, as shown: RCH2NH2+O2+H2O→RCHO+H2O2+NH3 (Kagan, 1986). To assess the substrate potential of FGF2, LO-dependent H2O2 release was monitored in assays using FGF2 as the sole substrate, using both the optimum temperature for LO activity of 55° C. and the physiological temperature of 37° C. (Trackman et al., 1981).
LO reaction with FGF2 as a substrate was assessed by a horseradish peroxidase-coupled fluorescence assay for H2O2 production. Reaction mixtures contained 0.25 mg of sodium homovanillate(HVA), 40 μg of HRP, and FGF2 at doses as indicated below in 0.05 M sodium borate buffer, pH 8.2, in a final volume of 2 ml. Assays were initiated by the addition of LO to reaction mixtures. H2O2 release was continuously monitored at excitation and emission wavelengths of 315 and 425 nm, respectively, at a constant temperature of 55° C. or 37° C., as specified, in the thermostatted cuvette chamber of an SLM Aminco Bowman Series 2 Luminescence Spectrometer. All activity data were corrected for background rates of H2O2 release determined in complete assay mixtures supplemented with 200 μM BAPN, an irreversible inhibitor of LO. In FIG. 4, solid curves represent the time course of H2O2 release at 55° C. in the reaction of 0.16 μM LO with 0.23 (a), 0.45 (b) and 0.9 (c) μM FGF2, respectively. Dotted curve (d) represents the time course of H2O2 release in the reaction of 0.16 μM LO with 0.9 μM FGF2 at 37° C. The same data were obtained from three separate experiments.
Using the fluorometric assay (Trackman et al., 1981) to monitor LO-dependent H2O2 release in vitro, the substrate potential of other growth factors was also assessed. Major members of the FGF family tested included FGF 1, 4, 5, 6, 7 and EGF (note: All factors are human recombinant forms purchased from R & D Systems, Inc., Minneapolis, Minn.).
A human recombinant disulfide-linked dimer of VEGF165 (MW: 42 kDa)(R & D Systems) as a sole substrate was tested by using the standard in vitro LO catalysis assays as described above for FIG. 4 (Trackman et al., 1981). Curves represent the time course of H2O2 release at 55° C. (a) or 37° C. (b) in the reaction of 0.10 μM LO with 0.45 μM VEGF165. All activity data were corrected for background rates of H2O2 release determined in complete assay mixtures supplemented with the same amounts of LO preincubated with 100 μM BAPN for 15 min at 37° C. The same data were obtained from three separate experiments.
The standard in vitro LO catalysis assays as described above for FIG. 4 (Trackman et al., 1981) using human recombinant PDGF-AB (R & D Systems) as a sole substrate was tested. […] In FIG. 19, curves represent the time course of H2O2 release at 55° C. (a) and 37° C. (b) in the reaction of 0.11 μM LO with 0.46 μM PDGF-AB, respectively. All activity data were corrected for background rates of H2O2 release determined in complete assay mixtures supplemented with the same amounts of LO preincubated with 100 μM BAPN for 15 minutes at 37° C. The same data were obtained from three separate experiments.
To analyze the substrate potential of Tat, the standard in vitro LO catalysis assays as described in FIG. 4 (Trackman et al., 1981) was performed at the optimum temperature of 55° C. and at the physiological temperature of 37° C. A recombinant Tat with 9 lysines in a total of 86 amino acids was used as a sole substrate. FIG. 12A represents a dose and temperature-dependent response. Curves represent the time course of H2O2 release at 55° C. (solid) or 37° C. (dotted) in the reaction of 0.10 μM LO with 0.22 (a and d), 0.43 (b and e) and 0.85 (c and f) μM Tat, respectively. All activity data were corrected for background rates of H2O2 release determined in complete assay mixtures supplemented with the same amounts of LO preincubated with 100 μM BAPN for 15 min at 37° C. […]

[1] = test system: human recombinant FGF2 (18 kDa); test: LO-catalyzed crosslinking of 125I-labeled FGF2, SDS-PAGE and autoradiography; assay type: biochemical; conditions: 5 μg 125I-FGF2 with 4 μg LO, 37° C., 1 h
Procedure: To determine crosslinking of FGF2 monomers as a result of its oxidation by LO, human recombinant FGF2 (18 kDa) was iodinated and ^1251-labeled FGF2 (5 μg) and was then incubated with 4 μg of LO in 0.1 M sodium borate buffer, pH 8.2 in a final volume of 100 μl, at 37° C. for 1 h. The reaction was quenched by the addition of 100 μM BAPN followed by incubation at 37° C. for 30 min. Aliquots of the incubated reaction mixtures were analyzed by SDS-PAGE (15%) and autoradiography. Lane 1 represents [^125]FGF2; lane 2 represents [^1251]FGF2+LO. The relative electrophoretic mobilities of pre-stained molecular weight standards are indicated under MW.

Molecule | effect on H2O2 release when added after the reaction of LO with Tat was initiated (lysyl oxidase (LO); 100 μM BAPN added at 200 seconds) | inhibition of the reaction of LO with Tat (lysyl oxidase (LO); LO preincubated with 100 μM BAPN for 5 minutes) | crosslinking of FGF2 monomers [1]
N#CCCN [BAPN, β-Aminopropionitrile, reference compound] | failed to block H2O2 release | totally inhibited | 
lysyl oxidase [LO] |  |  | induced the appearance of covalent dimers, oligomers and higher polymers
